The test system of test [1] is 11 human cyclins (D1/2/3, E1/2, A1/2, B1/2/3 and F). Description: SIMBA, cyclin binding and specificity across the cyclin panel. Type of test: cell-based. The following applies: result in words; for cyclin specificity in SIMBA: 13-mer peptides centered on P0; for cyclin binding in the tiled library SIMBA screen: tiled 16-mer peptides.
The test system of the next test is human cyclin A2. Description: Proteomic peptide phage display. The following applies: result in words; HD2 library of 16-mer peptides, four selection rounds. Type of test: binding.
The test system of the next test is human cyclin B1. The test can be described thus: Proteomic peptide phage display. Type of test: binding. Particulars: result in words; HD2 library of 16-mer peptides, four selection rounds.

Take SNARRSLNFGGST [SCAPER]: in test [1], the “cyclin specificity in SIMBA” value is recorded as “bound preferentially to cyclin A2”. Take SLVVGKLSFDSSP [CDC42EP1]: the “cyclin specificity in SIMBA” value in test [1] was “bound cyclin B1 specifically”. Still for that read-out and setting: for VKTKKRLNFDDKV [CENPC] the value was “bound preferentially to cyclin A2”. For KAIRKLHFEDE [INSM1], in test [1], the “cyclin specificity in SIMBA” value was “bind to members of all four families” and the “cyclin binding in the tiled library SIMBA screen” value is listed as “cyclin D1-binding motif”. For HELFQRLDFDNDG [DNAH7], the “cyclin specificity in SIMBA” value in test [1] was “bound cyclin B1 specifically”. As for VSAVQKLDFSDTMVQQ [PKN2 peptide], the “enrichment in ProP-PD selection, cyclin A2” value in the test with human cyclin A2 is on record as “dominated”. Further, the “enrichment in ProP-PD selection, cyclin B1” value in the test on human cyclin B1 is given as “dominated”.

For SKACRRLFGPVDS [CDKN1A (p21)], the “cyclin specificity in SIMBA” value in test [1] is listed as “bound all cyclin types except B”. As for PRARKRLELGNLG [ORC1], the “cyclin specificity in SIMBA” value in test [1] is “bound preferentially to cyclin A2”; in test [1] (listed as ORC1 RxL), “cyclin A-specific”. For the sequence QLRRQLSFSED [MICAL3], the “cyclin binding in the tiled library SIMBA screen” value in test [1] is “strong B1-binding motif”. As to YKVKRRLVFGADD [MuHV-1 M97], in test [1], the “cyclin specificity in SIMBA” value is “bind to members of all four families”. Still for that read-out and setting: with PPARRRLRLSVDE [CDT1] the entry was “bound preferentially to cyclin A2”; with DDIVSKLVFDFVE [DBF4], “bound cyclin B1 specifically”.

The values above are taken from publication PMC12356897 (Nature Communications, 2025).
